Source: patent EP1428528A1, “Synergistic combinations of dietary fiber and NSAIDs for the treatment of cancer” (Tiense Suikerraffinaderij N.V., priority 2002, dated 2004)
Marks after values point to notes of the source that are not given here.

Legend:
colorectal adenomas = conditions: patients with familial adenomatous polyposis; cited from earlier work
[1] = test system: azoxymethane-induced aberrant crypt foci in rat colon; assay: Aberrant crypt foci (ACF) study in azoxymethane-treated rats, Example 2 (same protocol as Example 1); type: in vivo, Fisher 344 male rats
Method: (§1) After 1 week of acclimatisation, 100 male Fisher 344 weanling rats were divided into 10 groups of 10 rats per group and assigned the AIN93G (Control) diet or the experimental diets for 13 weeks. For the study, temperature was maintained at 21°C ± 1°C, relative humidity at 50%, and light and dark cycles at 12 hours each. Feed and water were provided ad libitum. Weekly body weights and daily feed intake were recorded. After adaptation, all animals received two subcutaneous injections of azoxymethane (AOM) in saline at 16mg/kg body weight at 7 and 8 weeks of age. At the end of the feeding period, the animals were sacrificed using CO2 euthanasia after an overnight's fast. Accordingly, the colons of the rats were removed, flushed with potassium phosphate buffer 0.1M (pH 7.2) and examined for aberrant crypt foci (ACF) and tumours.
In example 2, experiments similar to the ones of example 1 were carried out, to examine the anti-cancer effects of a composition containing a combination of RAFTILINE® HP and sulindac. The 4 groups each of 10 Fisher 344 male rats were given a diet containing either control diet, control diet + RAFTILINE®HP, control diet + sulindac, or control diet + RAFTILINE®HP + sulindac (RAFTILINE® : trade name of RT/TS, Belgium). The protocol of the experiments was the same as the one of example 1.

[2] = test system: azoxymethane-induced aberrant crypt foci in rat colon; assay: Aberrant crypt foci (ACF) study in azoxymethane-treated rats, Example 1; type: in vivo, male Fisher 344 weanling rats; conditions: for Total ACF / Number of foci with 1 aberrant crypt per focus / Number of foci with 2 aberrant crypts per focus / Number of foci with 3 aberrant crypts per focus / Number of foci with 4 aberrant crypts per focus / Number of foci with 5(+) (5 and more) aberrant crypts per focus: Example 1, Table 3; for Total ACF / Number of foci with 1 aberrant crypt per focus / Number of foci with 2 aberrant crypts per focus / Number of foci with 3 aberrant crypts per focus / Number of foci with 4 aberrant crypts per focus / Number of foci with 5(+) (5 and more) aberrant crypts per focus / Number of AOM-induced ACF in rat colon in proximal part / Number of AOM-induced ACF in rat colon in distal part / Number of AOM-induced ACF in rat colon in total ACF in colon: Means ± SE, n=10; for Number of foci with 1 aberrant crypt per focus / Number of foci with 2 aberrant crypts per focus / Number of foci with 3 aberrant crypts per focus / Number of foci with 4 aberrant crypts per focus / Number of foci with 5(+) (5 and more) aberrant crypts per focus: proximal and distal colon; for Number of AOM-induced ACF in rat colon in proximal part / Number of AOM-induced ACF in rat colon in distal part / Number of AOM-induced ACF in rat colon in total ACF in colon: diet 13 weeks, inulin 100 g/kg and/or NSAID 0.2 g/kg diet; for Number of AOM-induced ACF in rat colon in proximal part: AOM 16mg/kg s.c. at 7 and 8 weeks of age; for Number of AOM-induced ACF in rat colon in distal part / Number of AOM-induced ACF in rat colon in total ACF in colon: AOM 16mg/kg s.c.
Method: The inulin used was Synergy1 (in short Syn1) and Synergy2 (in short Syn2), which are mixtures of oligofructose (RAFTILOSE®) and inulin of av. DP of 23 to 25 (RAFTILINE®) with a total content of inulin with a DP 9 and DP 10 of maximally 5 % by weight, at a weight ratio of 1:1 and 1:2, respectively, obtained from ORAFTI (Belgium) (RAFTILOSE® and RAFTILINE® are trade names of RT/TS, Belgium). The diets were prepared fresh every week and stored at 4°C until fed. The experimental diets were formulated based on AIN 93G diets. The ingredients were obtained from ICN Biomedicals, Aurora, OH, USA. All other chemicals were obtained from Sigma Chemical Co., St. Louis, MO, USA. All the protocols involving rats have been approved by the Institutional Animal Care and Use Committee of Alabama A& M University.
as §1

[3] = Example 2, Table 6, Means ± SEM
[4] = Example 2, inulin 100 g/kg and/or sulindac 0.2 g/kg diet, Means ± SE, n as indicated

CC1=C(CC(=O)O)c2cc(F)ccc2/C1=C\c1ccc([S+](C)[O-])cc1 (centres unmarked) [Sulindac]
number and size of colorectal adenomas compared to patients given placebo (colorectal adenomas): significantly reduce the number and size of colorectal adenomas | overall reduction in ACF (total colon) compared to the control diet ([1]; Example 2): about 52% | reduction of ACF in the distal colon compared to the control diet group ([1]; Example 2): about 44% | reduction of ACF in the proximal colon compared to the control diet group ([1]; Example 2): about 74% | Number of foci with 1 aberrant crypt per focus [1, 3]: 3.50 ± 0.38 ^b | Number of foci with 2 aberrant crypts per focus [1, 3]: 11.67 ± 1.19^b | Number of foci with 3 aberrant crypts per focus [1, 3]: 22.17± 1.03 ^c | Number of foci with 4 aberrant crypts per focus [1, 3]: 22.50 ± 0.86^b | Number of foci with 5(+) (5 and more) aberrant crypts per focus [1, 3]: 15.33 ± 0.45 ^c | Total ACF [1, 3]: 75.08 ± 1.93^d | foci with 3, 4 and 5 or more aberrant crypts compared to the other groups ([1]; Example 2, statement in text): significantly lower (p<0.05) | Number of AOM-induced ACF in rat colon in distal part [1, 4]: 64.50 ± 1.54^d | Number of AOM-induced ACF in rat colon in proximal part [1, 4]: 10.58 ± 0.90^c | Number of AOM-induced ACF in rat colon, Total ACF in colon [1, 4]: 75.1 ± 1.93 | Total ACF [2]: 73.87 ± 4.25 ^b | Number of foci with 1 aberrant crypt per focus [2]: 4.08 ± 0.48^c | Number of foci with 2 aberrant crypts per focus [2]: 12.14± 2.04^b | Number of foci with 3 aberrant crypts per focus [2]: 20.37 ± 2.40^b | Number of foci with 4 aberrant crypts per focus [2]: 20.48 ± 2.48^b | Number of foci with 5(+) (5 and more) aberrant crypts per focus [2]: 16.80 ± 0.78^b | Number of AOM-induced ACF in rat colon in proximal part ([2]; Example 1): 11.24 ± 0.90^b | Number of AOM-induced ACF in rat colon in distal part ([2]; Example 1): 62.58 ± 1.68^b | Number of AOM-induced ACF in rat colon in total ACF in colon ([2]; Example 1): 73.87 ± 4.25 ^b | reduction of the incidence of ACF compared to the controls ([2]; Example 1, inulin at 10 % level and/or NSAID in diet): about 53%

CN1C(C(=O)Nc2ccccn2)=C(O)c2ccccc2S1(=O)=O [Piroxicam]
Total ACF [2]: 62.64 ± 2.86^c | Number of foci with 1 aberrant crypt per focus [2]: 4.18 ± 1.04^c | Number of foci with 2 aberrant crypts per focus [2]: 13.16 ± 1.54^b | Number of foci with 4 aberrant crypts per focus [2]: 14.78 ± 1.94^c | Number of foci with 5(+) (5 and more) aberrant crypts per focus [2]: 14.24 ± 0.94^b | Number of AOM-induced ACF in rat colon in proximal part ([2]; Example 1): 12.16 ± 1.04^b | Number of AOM-induced ACF in rat colon in distal part ([2]; Example 1): 50.48 ± 1.09^b | Number of AOM-induced ACF in rat colon in total ACF in colon ([2]; Example 1): 62.64 ± 2.86^c

CC(=O)Oc1ccccc1C(=O)O [Aspirin, acetyl salicylate]
Total ACF [2]: 64.40 ± 3.46^c | Number of foci with 1 aberrant crypt per focus [2]: 6.50 ± 1.12^b | Number of foci with 2 aberrant crypts per focus [2]: 12.48 ± 1.23^b | Number of foci with 3 aberrant crypts per focus [2]: 17.42 ± 1.94^b | Number of foci with 4 aberrant crypts per focus [2]: 15.86 ± 1.82^c | Number of foci with 5(+) (5 and more) aberrant crypts per focus [2]: 12.14 ± 0.86^b | Number of AOM-induced ACF in rat colon in proximal part ([2]; Example 1): 10.26 ± 1.11^b | Number of AOM-induced ACF in rat colon in distal part ([2]; Example 1): 54.14 ± 1.96^b | Number of AOM-induced ACF in rat colon in total ACF in colon ([2]; Example 1): 64.40 ± 3.46^c
